In US12350270B2, “Antimalarial agents” (Merck Sharp & Dohme LLC, priority 2019, dated 2025):

The compounds below were run on parasites (ring stage, in human red blood cell culture) (assay: Parasite LDH growth assay (antiparasite potency, Parasite Assay)). Settings: 0.7% rings, 2% haematocrit, 72 hours at 37° C., LDH readout of parasite growth.
Format: cell-based, Plasmodium falciparum
Procedure: Assessing Antiparasite Potency in a Parasite LDH Growth Assay (Parasite Assay)
The parasite stock was maintained at 4% haematocrit in RPMI-Hepes media buffered with sodium bicarbonate and supplemented with 5% heat inactivated human serum and 0.5% albumax.
On the day of assay set up, a blood smear of the parasite culture was Giemsa stained and counted. The parasitemia was adjusted to 0.7% rings and the haematocrit was diluted to 2% in RPMI-Hepes media buffered with sodium bicarbonate and supplemented with 5% heat inactivated human serum and 0.5% albumax. 30 ul of diluted parasites are then added into 10 ul of media+compound in pre-prepared Greiner TC assay plates. Parasite assay plates were placed in gassed humidified boxes in single layer and allowed to incubate at 37° C. for 72 hours. After 72 hours growth, assay plates are sealed with parafilm and frozen flat, in single file at −80° C. overnight. On the following day, assay plates are allowed to thaw at room temperature for 4 hours to which an LDH assay is performed to measure parasite growth.

Going from CCC1(CC)CC(=O)N([C@@H]2CCOc3ccc(C(=O)NC4c5ccccc5OCC4O)cc32)C(=N)N1 (single isomer, unassigned) [Example 8A] to CCC1(CC)CC(=O)N([C@@H]2CCOc3ccc(C(=O)N[C@H]4c5ccccc5OCC4(C)O)cc32)C(=N)N1 (single isomer, unassigned) [Example 60B], the EC50 falls from 10 nM to 1.7 nM (5.9-fold). The second is the more potent here.

First: CCC1(CC)CC(=O)N([C@@H]2CCOc3ccc(C(=O)NC4c5ccccc5OCC4O)cc32)C(=N)N1 (single isomer, unassigned) [Example 8B]
Second: CCC1(CC)CC(=O)N([C@@H]2CCOc3ccc(C(=O)N[C@@H]4c5ccccc5OC(C(F)(F)F)C4O)cc32)C(=N)N1 (single isomer, unassigned) [Example 32A]
The EC50 of the first is 2.8-fold higher: 22 nM for the first, 7.9 nM for the second.

Going from CCC1(CC)CC(=O)N([C@@H]2CCOc3ccc(C(=O)NC4c5ccccc5OCC4O)cc32)C(=N)N1 (single isomer, unassigned) [Example 8C] to CCC1(CC)CC(=O)N([C@@H]2CCOc3ccc(C(=O)N[C@@H]4c5ccccc5OC(C(F)(F)F)C4O)cc32)C(=N)N1 (single isomer, unassigned) [Example 32B], the EC50 rises from 120 nM to 290 nM (2.4-fold). The first is the more potent here.

First: CCC1(CC)CC(=O)N([C@@H]2CCOc3ccc(C(=O)NC4c5ccccc5OCC4O)cc32)C(=N)N1 (single isomer, unassigned) [Example 8D]
Second: CCC1(CC)CC(=O)N([C@@H]2CCOc3ccc(C(=O)NC4c5ccccc5OC4(C)CO)cc32)C(=N)N1 (single isomer, unassigned) [Example 176A]
The EC50 of the first is 2.9-fold higher: 86 nM for the first, 29.2 nM for the second. The second is the more potent here.

CCC1C[C@@H](N2C(=N)NC(CC)(CC)CC2=O)c2cc(C(=O)N[C@@H]3c4ccccc4C[C@H]3O)ccc2O1 (single isomer, unassigned) [Example 9A] and CCC1C[C@@H](N2C(=N)NC(CC)(CC)CC2=O)c2cc(C(=O)NC3c4ccccc4OC(C)(C)C3O)ccc2O1 (single isomer, unassigned) [Example 13A] are within 1.5-fold of each other in EC50: 0.9 nM for the first, 0.8 nM for the second.

First: CCC1C[C@@H](N2C(=N)NC(CC)(CC)CC2=O)c2cc(C(=O)N[C@@H]3c4ccccc4C[C@H]3O)ccc2O1 (single isomer, unassigned) [Example 9B]
Second: CCC1(CC)CC(=O)N(C2c3cc(C(=O)N[C@@H]4c5ccccc5C[C@H]4O)ccc3OC2(C)CO)C(=N)N1 (single isomer, unassigned) [Example 178A]
The EC50 of the first is 1.6-fold higher: 170 nM for the first, 108 nM for the second.

Going from CCC1(CC)CC(=O)N([C@@H]2CC(COC)Oc3ccc(C(=O)N[C@H]4CC(C)(C)Oc5ccccc54)cc32)C(=N)N1 (single isomer, unassigned) [Example 16A] to CCC1(CC)CC(=O)N([C@H]2c3cc(C(=O)N[C@H]4CC(C)(C)Oc5ccccc54)ccc3O[C@]2(C)COC)C(=N)N1 (single isomer, unassigned) [Example 74A], the EC50 falls from 0.6 nM to 0.3 nM (2-fold).

Compared with CCC1(CC)CC(=O)N([C@@H]2CC(COC)Oc3ccc(C(=O)N[C@H]4CC(C)(C)Oc5ccccc54)cc32)C(=N)N1 (single isomer, unassigned) [Example 16B], CCC1(CC)CC(=O)N([C@H]2c3cc(C(=O)N[C@H]4CC(C)(C)Oc5ccccc54)ccc3O[C@]2(C)COC)C(=N)N1 (single isomer, unassigned) [Example 74B] is 15-fold lower in EC50: 95 nM for the first, 6.5 nM for the second. The second is the more potent here.

Compared with CCC1(CC)CC(=O)N([C@@H]2CC(C)(C)Oc3ccc(C(=O)N[C@@H]4c5ccccc5CC4(C)O)cc32)C(=N)N1 (single isomer, unassigned) [Example 42A], CC1(C)CC(=O)N([C@@H]2CC(C)(C)Oc3ccc(C(=O)N[C@@H]4c5ccccc5CC4(C)O)cc32)C(=N)N1 (single isomer, unassigned) [Example 54B] is 160-fold higher in EC50: 1 nM for the first, 160 nM for the second. The first is the more potent here.

Going from CCC1(CC)CC(=O)N([C@@H]2CC(C)(C)Oc3ccc(C(=O)N[C@@H]4c5ccccc5CC4(C)O)cc32)C(=N)N1 (single isomer, unassigned) [Example 42B] to CCC1(CC)C[C@@H](N2C(=N)NC(C)(C)CC2=O)c2cc(C(=O)N[C@@H]3c4ccccc4CC3(C)O)ccc2O1 (single isomer, unassigned) [Example 55A], the EC50 rises from 3.2 nM to 24.5 nM (7.7-fold).

Compared with CC(C)[C@]1(C)CC(=O)N([C@@H]2CC(C)(C)Oc3ccc(C(=O)N[C@@H]4c5ccccc5CC4(C)O)cc32)C(=N)N1 (single isomer, unassigned) [Example 43A], CCC1(CC)C[C@@H](N2C(=N)NC(C)(C)CC2=O)c2cc(C(=O)N[C@@H]3c4ccccc4CC3(C)O)ccc2O1 (single isomer, unassigned) [Example 55B] is 10-fold higher in EC50: 8.1 nM for the first, 83.1 nM for the second. The first is the more potent here.

First: CC(C)[C@]1(C)CC(=O)N([C@@H]2CC(C)(C)Oc3ccc(C(=O)N[C@@H]4c5ccccc5CC4(C)O)cc32)C(=N)N1 (single isomer, unassigned) [Example 43B]
Second: CCC1(CC)CC(=O)N([C@@H]2CCOc3ccc(C(=O)N[C@@H]4c5ccccc5CC4(C)O)cc32)C(=N)N1 (single isomer, unassigned) [Example 44B]
The EC50 of the first is 7.5-fold higher: 21 nM for the first, 2.8 nM for the second. The second is the more potent here.

First: CCC1(CC)CC(=O)N([C@@H]2CCOc3ccc(C(=O)NC4c5ccccc5OC4(C)COC)cc32)C(=N)N1 (single isomer, unassigned) [Example 64A]
Second: CCC1(CC)CC(=O)N([C@@H]2CCOc3ccc(C(=O)NC4c5ccccc5OC4(C)CO)cc32)C(=N)N1 (single isomer, unassigned) [Example 176C]
The EC50 of the first is 5-fold higher: 12 nM for the first, 2.4 nM for the second. The second is the more potent here.

First: CCC1(CC)CC(=O)N([C@@H]2CCOc3ccc(C(=O)NC4c5ccccc5OC4(C)COC)cc32)C(=N)N1 (single isomer, unassigned) [Example 64B]
Second: CCC1(CC)CC(=O)N([C@@H]2CCOc3ccc(C(=O)NC4c5ccccc5OC4(C)CO)cc32)C(=N)N1 (single isomer, unassigned) [Example 176D]
The EC50 of the first is 130-fold lower: 0.9 nM for the first, 114 nM for the second.

Compared with CCC1(CC)CC(=O)N([C@@H]2CCOc3ccc(C(=O)NC4c5ccccc5OC4(C)COC)cc32)C(=N)N1 (single isomer, unassigned) [Example 64C], CCC1(CC)CC(=O)N([C@@H]2CCOc3ccc(C(=O)NC4c5ccccc5OC4(C)C)cc32)C(=N)N1 (single isomer, unassigned) [Example 133A] is 46-fold lower in EC50: 64 nM for the first, 1.4 nM for the second. The second is the more potent here.

Going from CCC1(CC)CC(=O)N([C@@H]2CCOc3ccc(C(=O)NC4c5ccccc5OC4(C)COC)cc32)C(=N)N1 (single isomer, unassigned) [Example 64D] to CCC1(CC)CC(=O)N([C@@H]2CCOc3ccc(C(=O)NC4c5ccccc5OC4(C)C)cc32)C(=N)N1 (single isomer, unassigned) [Example 133B], the EC50 falls from 42 nM to 17 nM (2.5-fold).

First: CCOC(=O)C1(C)Oc2ccccc2C1NC(=O)c1ccc2c(c1)[C@H](N1C(=N)NC(CC)(CC)CC1=O)CCO2 (single isomer, unassigned) [Example 65A]
Second: CC[C@]1(C)CC(=O)N(C2CC(C)Oc3ccc(C(=O)N[C@@H]4c5ccccc5OC[C@@]4(C)O)cc32)C(=N)N1 (single isomer, unassigned) [Example 181A]
The EC50 of the first is 2.8-fold lower: 68 nM for the first, 189 nM for the second.

Compared with CCOC(=O)C1(C)Oc2ccccc2C1NC(=O)c1ccc2c(c1)[C@H](N1C(=N)NC(CC)(CC)CC1=O)CCO2 (single isomer, unassigned) [Example 65B], CC[C@]1(C)CC(=O)N(C2CC(C)Oc3ccc(C(=O)N[C@@H]4c5ccccc5OC[C@@]4(C)O)cc32)C(=N)N1 (single isomer, unassigned) [Example 181B] is 3-fold higher in EC50: 2.6 nM for the first, 7.9 nM for the second. The first is the more potent here.

Going from CCOC(=O)C1(C)Oc2ccccc2C1NC(=O)c1ccc2c(c1)[C@H](N1C(=N)NC(CC)(CC)CC1=O)CCO2 (single isomer, unassigned) [Example 65C] to CCC1(CC)CC(=O)N([C@H]2c3cc(C(=O)N[C@@H]4c5ccccc5OC(C)(C)[C@H]4O)ccc3OC2(C)COC)C(=N)N1 (single isomer, unassigned) [Example 73A], the EC50 falls from 26 nM to 0.3 nM (87-fold). The second is the more potent here.

CCC1(CC)CC(=O)N([C@H]2c3cc(C(=O)N[C@@H]4c5ccccc5OC(C)(C)[C@H]4O)ccc3OC2(C)COC)C(=N)N1 (single isomer, unassigned) [Example 73B] and CCC1(CC)CC(=O)N(C2c3cc(C(=O)N[C@@H]4c5ccccc5C[C@H]4O)ccc3OC2(C)CO)C(=N)N1 (single isomer, unassigned) [Example 178B] are within 1.5-fold of each other in EC50: 1.7 nM for the first, 2.2 nM for the second.

Work on CC[C@]1(C)CC(=O)N([C@@H]2CCOc3ccc(C(=O)NC4c5cc(F)ccc5OCC4(C)O)cc32)C(=N)N1 (single isomer, unassigned) [Example 190A] yielded an EC50 of 261 nM.
CC[C@]1(C)CC(=O)N([C@@H]2CCOc3ccc(C(=O)NC4c5cc(F)ccc5OCC4(C)O)cc32)C(=N)N1 (single isomer, unassigned) [Example 190B] gave an EC50 of 2.6 nM.

Same assay, conditions: Plasmodium falciparum, Erythrocyte, 72 h, 0.7% rings, 2% haematocrit, 72 hours at 37° C., LDH readout of parasite growth

CC(C)[C@]1(C)CC(=O)N([C@@H]2CCOc3ccc(C(=O)NC4c5ccccc5OC(C)(C)C4O)cc32)C(=N)N1 (single isomer, unassigned) [Example 11A] and CCC1(CC)CC(=O)N([C@@H]2CCOc3ccc(C(=O)N[C@H]4c5ccccc5OCC4(C)O)cc32)C(=N)N1 (single isomer, unassigned) [Example 60A] are within 1.5-fold of each other in EC50: 0.9 nM for the first, 1.3 nM for the second.

Going from CCC1(CC)CC(=O)N([C@@H]2CC(COC)Oc3ccc(C(=O)N[C@@H]4c5ccccc5C[C@H]4O)cc32)C(=N)N1 (single isomer, unassigned) [Example 17A] to CCC1(CC)CC(=O)N([C@@H]2CCOc3ccc(C(=O)N[C@@H]4c5ccccc5CC4(C)O)cc32)C(=N)N1 (single isomer, unassigned) [Example 44A], the EC50 falls from 2.7 nM to 1.5 nM (1.8-fold).

Compound CC1(C)CC(=O)N([C@@H]2CC(C)(C)Oc3ccc(C(=O)N[C@@H]4c5ccccc5CC4(C)O)cc32)C(=N)N1 (single isomer, unassigned) [Example 54A] has an EC50 of 190 nM.
